{"source": "patent US10329542B2", "about": "“HBV RNAse H purification and enzyme inhibitors” (Saint Louis University, priority 2012, dated 2019)", "key": {"HBV genotype A [1]": {"test_system": "HBV genotype A", "assay": "HBV replication inhibition in Huh7 cells, Southern blot, genotype A", "assay_type": "cell-based, Hepatitis B virus", "settings": "for Inhibition of HBV replication, RNA:DNA heteroduplex signature: 10 μM, Huh7 cells, Southern blot", "description": "Huh7 cells were maintained in Dulbecco's modified Eagle's medium with 10% fetal bovine serum at 37° C. in 5% CO2. Cells were seeded into 60 mm dishes and transfected at 70% confluency with 2.6 μg of plasmids using TransIT-LT1 (Mirus, Inc.). Test compounds were added the morning following transfection at 10 or 50 μM, and fresh medium containing the compounds was provided every 1-2 days. Four or five days post-transfection HBV cores were isolated by lysis of the cells in 10 mM Tris pH 7.5, 1 mM EDTA, 0.25% NP40, 50 mM NaCl, and 8% sucrose followed by sedimentation through a 30% sucrose cushion as described (Travis, et al., 1998). Viral DNAs were isolated from cytoplasmic core particle preparations by proteinase K digestion followed by phenol/chloroform extraction as described (Gong et al., 2001). Duplicate aliquots of the nucleic acids were treated with 2 U E. coli DNAse-free RNAseH (Invitrogen) at 37° C. for 30 min. or were mock treated. The nucleic acid samples were resolved by electrophoresis on 1.2% agarose gels and detected by Southern blotting with ^32P-labeled HBV DNA as a probe.\nFinally, the inventors asked whether HBV RNAseH inhibitors could block HBV replication in culture. Huh7 cells were transfected with genomic expression vectors for HBV genotype A or D isolates, the cells were treated with 10 or 50 μM compounds, and viral nucleic acids were isolated from intracellular HBV capsids after four days. Replicate nucleic acid aliquots were mock treated or treated with DNAse-free E. coli RNAseH to destroy RNA:DNA heteroduplexes, and then HBV DNAs were detected by Southern blotting. The signature of RNAseH inhibition is accumulation of RNA:DNA heteroduplexes that migrate as double-stranded species without exogenous RNAseH treatment but as faster-migrating single-stranded DNAs following RNAseH treatment.\nInhibition of HBV replication by βTJ was measured as recently described (Tavis et al., 2013). Briefly, Huh7 cells were transfected with HBV genomic expression vectors using TransIT-LT1 (Mirus, Inc.), βTJ was added 12-16 hrs post-transfection at the indicated concentrations, and fresh medium containing the compounds was provided two days later. HBV core particles were isolated four days post-transfection by detergent lysis of the cells and sedimentation through a sucrose cushion as described (Tavis et al., 1998). Viral DNAs were isolated from cytoplasmic core particle preparations by proteinase K digestion followed by phenol/chloroform extraction as described (Gong et al., 2001). Duplicate aliquots of each nucleic acid preparation were treated with 2 U E. coli DNAse-free RNAseH (Invitrogen) at 37° C. for 30 min. or were mock treated. The nucleic acids were resolved by electrophoresis on 1.2% agarose gels and HBV DNAs were detected by Southern blotting with ^32P-labeled double-stranded HBV DNA as a probe to detect both the plus- and minus-polarity HBV DNA strands. HBV core protein (HBc) and β-actin in the cytoplasmic lysates were monitored by western analysis using an anti-HBc antibody (HBP-023-9, Austral Biologicals) and a mouse […] monoclonal antibody from ZSGB-BIO Co., Ltd., respectively. HBV surface antigen (HBs) proteins were quantified by ELISA (Shanghai Kehua Biotech)."}, "HBV genotype A [2]": {"test_system": "HBV genotype A", "assay": "Plus-polarity preferential real-time PCR of HBV DNA, Huh7 cells", "assay_type": "cell-based, Hepatitis B virus", "description": "Plus-polarity preferential quantitative TaqMan PCR for the HBV DNA was conducted employing forward primer […] (SEQ ID NO: 13), reverse primer […] (SEQ ID NO:14), and probe 5′-6Fam-[…]-Zen-[…]-IabkFQ-3′ (5′-6Fam-SEQ ID NO:15-Zen-SEQ ID NO: 16-IabkFQ-3′) (Integrated DNA Technologies). PCR was conducted on purified HBV capsid-derived nucleic acids for 40 cycles of 95° C. for 15 sec. and 65° C. for 1 min. employing the TaqMan universal PCR master mix (Applied Biosystems). Results were standardized against serial dilutions of cloned HBV DNA. The EC50 was estimated by linear regression of the real-time PCR data.\nThe HBV plus-polarity DNA strand was measured to quantify the effects of βTJ on HBV replication because plus-polarity DNA cannot be made without RNAseH activity. Real-time PCR primers flanking the gap in the HBV minus-polarity DNA were designed that preferentially measure plus-polarity DNA because amplification across the gap in the minus-polarity DNA is inefficient. […] Above 10 μM, βTJ suppressed HBV plus-polarity DNA levels to below the assay background of approximately 14% that was determined with the D702A RNAseH-deficient genome."}}, "note": "“Also recorded” adds a separate entry of the source."}
{"smiles": "COc1ccc2ccccc2c1C=NNC(=O)c1cc(O)c(O)c(O)c1", "note": "[Compound 14]", "values": [{"measurement": "Inhibition of HBV replication", "setting": "HBV genotype A [1]; 25 μM", "result": "inhibited HBV replication in one experiment"}]}
{"smiles": "CC(C)c1ccc(O)c(=O)c(O)c1", "note": "[Compound 46, beta-thujaplicinol]", "values": [{"measurement": "HBV plus-polarity DNA level", "setting": "HBV genotype A [2]; above 10 μM, assay background approximately 14%", "result": "< 14", "unit": "%"}, {"measurement": "EC50", "setting": "HBV genotype A [2]; read-out: 50% effective concentration (EC50), genotype A isolate in Huh7 cells", "result": "~5", "unit": "µM"}, {"measurement": "Inhibition of HBV replication, RNA:DNA heteroduplex signature", "setting": "HBV genotype A [1]", "result": "inhibited HBV replication in cell culture; also recorded: inhibited production of the slowest-migrating (mature) viral DNA"}, {"measurement": "Accumulation of RC DNA and RNA:DNA heteroduplexes", "setting": "HBV genotype A [1]; 2.5, 10, 15, and 20 μM, four days", "result": "suppressed accumulation of the RC DNA"}, {"measurement": "Total amount of viral DNA detected", "setting": "HBV genotype A [1]; 15 and 20 μM", "result": "suppressed"}]}
{"smiles": "[N-]=[N+]=NCc1cccc(C(=O)CC(=O)C(=O)O)c1", "note": "[Compound 40]", "values": [{"measurement": "Inhibition of HBV replication", "setting": "HBV genotype A [1]; 50 μM", "result": "inhibited replication in another experiment"}]}
{"smiles": "Cc1c2cc(O)c(=O)cc-2oc2cc(O)c(O)cc12", "note": "[Compound 8]", "values": [{"measurement": "Inhibition of HBV replication, RNA:DNA heteroduplex signature", "setting": "HBV genotype A [1]", "result": "did not affect HBV replication"}]}
{"smiles": "NCc1ccc(-c2ccc(Cc3cc(=O)n(O)c4ncccc34)cc2)cc1", "note": "[Compound 12, napthyridinone]", "values": [{"measurement": "Plus-strand DNA accumulation", "setting": "HBV genotype A [2]; 10 μM, data not shown", "result": "7.3 % of the DMSO treated control"}, {"measurement": "Inhibition of HBV replication, RNA:DNA heteroduplex signature", "setting": "HBV genotype A [1]", "result": "blocked production of the slowest-migrating double-stranded forms; also recorded: inhibited HBV replication in cell culture; also recorded: inhibited production of the slowest-migrating (mature) viral DNA"}]}
